Entries after “also recorded” stand apart in the source; their conditions may differ. Where two headings read alike, the source gives them in different places.
Tests used:
[1] = molecular target: T1, serotonin transporter (5-HTT) (Rattus norvegicus, UniProt P31652); experiment: Competitive binding at the 5-HTT with [3H]paroxetine
[2] = molecular target: T2, norepinephrine transporter (NET) (Rattus norvegicus, UniProt Q63380); experiment: Competitive binding at the NET with [3H]nisoxetine
[3] = molecular target: T3, dopamine transporter (DAT) (Rattus norvegicus, UniProt P23977); experiment: Competitive binding at the DAT with [3H]WIN 35,428
T3 sequence (P23977 whole entry): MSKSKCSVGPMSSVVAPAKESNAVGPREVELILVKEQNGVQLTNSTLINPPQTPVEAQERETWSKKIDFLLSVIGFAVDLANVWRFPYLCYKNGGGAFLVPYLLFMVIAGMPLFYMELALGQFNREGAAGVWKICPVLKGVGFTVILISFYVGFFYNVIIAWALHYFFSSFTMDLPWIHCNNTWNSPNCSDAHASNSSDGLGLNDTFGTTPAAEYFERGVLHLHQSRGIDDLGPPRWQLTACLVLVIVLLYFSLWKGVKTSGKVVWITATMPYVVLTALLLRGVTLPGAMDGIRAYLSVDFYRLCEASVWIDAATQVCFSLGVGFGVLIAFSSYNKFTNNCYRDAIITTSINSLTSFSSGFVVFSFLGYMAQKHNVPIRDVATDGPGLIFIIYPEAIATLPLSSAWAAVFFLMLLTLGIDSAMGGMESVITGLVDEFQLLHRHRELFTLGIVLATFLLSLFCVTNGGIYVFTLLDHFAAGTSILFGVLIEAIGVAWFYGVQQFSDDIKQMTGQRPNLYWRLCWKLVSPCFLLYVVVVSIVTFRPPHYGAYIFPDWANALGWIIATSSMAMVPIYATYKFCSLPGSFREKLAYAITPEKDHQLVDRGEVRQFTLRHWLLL

[4] = test system: cocaine self-administration; details: rhesus monkeys, multiple second-order schedule; cited from earlier work
[5] = test system: dopamine transporter (DAT); details: cited from earlier work
[6] = molecular target: T1, serotonin transporter (5-HTT); details: read-out: 5-HTT, Ki [3H]paroxetine; comparison data; cited from earlier work
[7] = molecular target: T3, dopamine transporter (DAT); details: read-out: DAT, IC50 [3H]12; comparison data; cited from earlier work
reinforcement = details: squirrel monkeys; cited from earlier work
[8] = molecular target: T2, norepinephrine transporter (NET); details: read-out: NET, Ki [3H]nisoxetine; comparison data; cited from earlier work
drug self-administration = details: three rhesus monkeys; cited from earlier work

T2 sequence (Q63380 1-617): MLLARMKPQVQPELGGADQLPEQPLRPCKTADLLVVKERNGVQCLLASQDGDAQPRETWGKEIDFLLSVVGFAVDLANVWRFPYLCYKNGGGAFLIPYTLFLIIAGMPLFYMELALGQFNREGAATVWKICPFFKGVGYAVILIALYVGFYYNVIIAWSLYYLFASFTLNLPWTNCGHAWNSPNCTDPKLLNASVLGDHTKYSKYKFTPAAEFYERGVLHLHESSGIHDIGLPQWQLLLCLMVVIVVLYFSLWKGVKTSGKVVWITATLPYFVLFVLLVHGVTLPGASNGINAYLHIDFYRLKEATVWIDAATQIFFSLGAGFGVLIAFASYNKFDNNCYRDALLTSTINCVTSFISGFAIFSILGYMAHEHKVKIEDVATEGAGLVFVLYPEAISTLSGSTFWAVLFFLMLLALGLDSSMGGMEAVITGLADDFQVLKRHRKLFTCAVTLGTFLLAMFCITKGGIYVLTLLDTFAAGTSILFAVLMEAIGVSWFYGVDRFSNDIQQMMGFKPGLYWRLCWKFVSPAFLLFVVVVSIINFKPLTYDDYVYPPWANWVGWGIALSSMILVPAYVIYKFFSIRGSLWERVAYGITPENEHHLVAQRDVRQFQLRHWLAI
T1 sequence (P31652 whole entry): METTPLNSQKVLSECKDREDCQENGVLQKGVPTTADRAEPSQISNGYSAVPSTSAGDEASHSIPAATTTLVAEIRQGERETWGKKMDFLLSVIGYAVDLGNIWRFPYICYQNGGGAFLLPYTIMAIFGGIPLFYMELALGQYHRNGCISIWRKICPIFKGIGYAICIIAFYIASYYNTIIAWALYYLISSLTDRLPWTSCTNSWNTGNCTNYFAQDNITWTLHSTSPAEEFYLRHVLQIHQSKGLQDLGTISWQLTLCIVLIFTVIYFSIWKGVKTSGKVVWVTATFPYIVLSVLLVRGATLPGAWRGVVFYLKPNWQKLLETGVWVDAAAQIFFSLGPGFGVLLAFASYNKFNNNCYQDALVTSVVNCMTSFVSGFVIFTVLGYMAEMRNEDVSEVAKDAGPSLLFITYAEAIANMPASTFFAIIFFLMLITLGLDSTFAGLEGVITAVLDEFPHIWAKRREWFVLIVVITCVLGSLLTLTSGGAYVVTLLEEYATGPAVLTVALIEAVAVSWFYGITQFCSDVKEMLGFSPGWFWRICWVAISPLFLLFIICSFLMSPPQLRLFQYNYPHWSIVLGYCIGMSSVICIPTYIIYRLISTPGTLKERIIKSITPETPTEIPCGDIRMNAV

Compound	Ki [1] [nM]	Ki [2] [nM]	also measured
COC(=O)[C@H]1[C@@H](c2ccc(OC)cc2)C[C@@H]2CC[C@H]1N2C [7a, 3β-(4-Methoxyphenyl)tropane-2β-carboxylic Acid Methyl Ester]	4.3 ± 0.5	1110 ± 64	
CCOc1ccc([C@H]2C[C@@H]3CC[C@H]([C@H]2C(=O)OC)N3C)cc1 [7b, 3β-(4-Ethoxyphenyl)tropane-2β-carboxylic Acid Methyl Ester]	1.7 ± 0.4	1690 ± 50	
COC(=O)[C@H]1[C@@H](c2ccc(OC)c(F)c2)C[C@@H]2CC[C@H]1N2C [7c, 3β-(3-Fluoro-4-methoxyphenyl)tropane-2β-carboxylic Acid Methyl Ester]	4.8 ± 0.5	270 ± 50	
COC(=O)[C@H]1[C@@H](c2ccc(OC)c(Br)c2)C[C@@H]2CC[C@H]1N2C [7d, 3β-(3-Bromo-4-methoxyphenyl)tropane-2β-carboxylic Acid Methyl Ester]	3.1 ± 0.1	160 ± 20	
COC(=O)[C@H]1[C@@H](c2cc(I)c(OC)c(I)c2)C[C@@H]2CC[C@H]1N2C [7g, 3β-(3,5-Diiodo-4-methoxyphenyl)tropane-2β-carboxylic Acid Methyl Ester]	7.5 ± 0.8	> 5000	
COc1ccc([C@H]2C[C@@H]3CC[C@H]([C@H]2C(=O)OC(C)C)N3C)cc1 [8a, 3β-(4-Methoxyphenyl)tropane-2β-carboxylic Acid Isopropyl Ester]	135 ± 35	2010 ± 200	
COc1ccc([C@H]2C[C@@H]3CC[C@H]([C@H]2C(=O)OC2CC2)N3C)cc1 [8b, 3β-(4-Methoxyphenyl)tropane-2β-carboxylic Acid Cyclopropyl Ester]	29 ± 3	1230 ± 140	
COc1ccc([C@H]2C[C@@H]3CC[C@H]([C@H]2C(=O)OC2CCC2)N3C)cc1 [8c, 3β-(4-Methoxyphenyl)tropane-2β-carboxylic Acid Cyclobutyl Ester]	100 ± 8	> 3000	
COc1ccc([C@H]2C[C@@H]3CC[C@H]([C@H]2C(=O)OCCc2ccc([N+](=O)[O-])cc2)N3C)cc1 [8d, 3β-(4-Methoxyphenyl)tropane-2β-carboxylic Acid 2-(4-Nitrophenyl)ethyl Ester]	2.9 ± 0.2	330 ± 20	
COc1ccc([C@H]2C[C@@H]3CC[C@H]([C@H]2C(=O)OCCc2ccc(N)cc2)N3C)cc1 [8e, 3β-(4-Methoxyphenyl)tropane-2β-carboxylic Acid 2-(4-Aminophenyl)ethyl Ester]	8.3 ± 0.4	2200 ± 300	
COc1ccc([C@H]2C[C@@H]3CC[C@H]([C@H]2C(=O)OCCc2ccc(NC(C)=O)cc2)N3C)cc1 [8f, 3β-(4-Methoxyphenyl)tropane-2β-carboxylic Acid 2-(4-Acetylaminophenyl)ethyl Ester]	5.5 ± 0.5	1460 ± 30	
COc1ccc([C@H]2C[C@@H]3CC[C@H]([C@H]2C(=O)OCCc2ccc(N)c(Br)c2)N3C)cc1 [8g, 3β-(4-Methoxyphenyl)tropane-2β-carboxylic Acid 2-(3-Bromo-4-aminophenyl)ethyl Ester]	4.1 ± 0.6	1850 ± 90	
COc1ccc([C@H]2C[C@@H]3CC[C@H]([C@H]2C(=O)OCCc2cc(Br)c(N)c(Br)c2)N3C)cc1 [8h, 3β-(4-Methoxyphenyl)tropane-2β-carboxylic Acid 2-(3,5-Dibromo-4-aminophenyl)ethyl Ester]	2 ± 0.4	2710 ± 250	
COc1ccc([C@H]2C[C@@H]3CC[C@H]([C@H]2C(=O)OCCc2ccc(N)c(I)c2)N3C)cc1 [8i, 3β-(4-Methoxyphenyl)tropane-2β-carboxylic Acid 2-(3-Iodo-4-aminophenyl)ethyl Ester]	3.5 ± 1	2040 ± 300	
COc1ccc([C@H]2C[C@@H]3CC[C@H]([C@H]2C(=O)OCCc2cc(I)c(N)c(I)c2)N3C)cc1 [8j, 3β-(4-Methoxyphenyl)tropane-2β-carboxylic Acid 2-(3,5-Diiodo-4-aminophenyl)ethyl Ester]	1 ± 0.1	2600 ± 200	IC50 [3]: 100 nM
Cc1ccc(-c2cc([C@@H]3C4CCC(C[C@@H]3c3ccc(Cl)cc3)N4C)on2)cc1 (stereo partly drawn) [compound 3, 3β-(4-chlorophenyl)-2β-[3-(4′-methylphenyl)isoxazol-5-yl]tropane]			Cocaine maintained responding after pretreatment [4]: dose-dependent reduction
COC(=O)[C@H]1[C@@H](c2ccc(Cl)c(C)c2)C[C@@H]2CC[C@H]1N2C [compound 6, 3β-(4-Chloro-3-methylphenyl)tropane-2β-carboxylic acid methyl ester]			DAT occupancy ([5]; at the ED50 for reduction of cocaine self-administration): no detectable; also recorded: below the limits of detection; DAT occupancy ([5]; highest dose tested): greater than 70%; Ki [6]: 0.95 ± 0.04 nM; IC50 [7]: 0.82 ± 0.05 nM; Reinforcement effects (reinforcement): did not exhibit any reinforcement effects; Ki [8]: 21.8 ± 0.6 nM; Maintenance of drug self-administration (drug self-administration): failed to maintain robust drug self-administration
COc1ccc([C@H]2C[C@@H]3CC[C@H]([C@H]2c2cc(-c4ccc(C)cc4)no2)N3C)cc1 [compound 9, 3β-(4-Methoxyphenyl)-2β-[3-(4′-methylphenyl)isoxazol-5-yl]tropane]	860 ± 170	> 3000	
